The values below come from PMC12529303, “A phase I study of AZD8186 in combination with docetaxel in patients with PTEN-mutated or PIK3CB-mutated advanced solid tumors” (ESMO Open, 2025).

Data set [1] concerns castration-resistant prostate cancer with PTEN loss. Details: method as in PMID 28645941. Particulars: cited from earlier work.
Data set [2] can be described thus: AZD8186 plasma pharmacokinetics (UPLC-MS/MS, noncompartmental). Type of data set: in vivo, human. The settings on record: for Cmin,ss / Cmax / Tmax / AUC(0-t): plasma; for Cmax / Tmax / AUC(0-t): human, oral, C2D1; for AUC(0-t): read-out: AUC0-6h. The protocol:
(§1) Plasma samples were collected at predefined time points based upon the dosing schedules for docetaxel and AZD8186. Cycle 1, day 1 (C1D1) pretreatment baseline measurements were collected for both drugs. For docetaxel, samples were collected as follows: C2D1, pretreatment, 30 min and 55 min after the start of the docetaxel infusion, and 2 h and 5 h after the end of the docetaxel infusion; C2D2, ∼24 h after the start of the docetaxel infusion. For AZD8186, samples were collected as follows: C2D1, pretreatment and 1 h, 3 h, and 6 h after dosing; C2D2, ∼24 h after dose and before the next AZD8186 dose. Starting from cycle 3, a day 1 pretreatment sample was collected at each scheduled visit.
Plasma concentrations of docetaxel were quantified using a validated liquid chromatography and tandem mass spectrometry.[36] The lower limit of quantitation for docetaxel was 0.5 ng/ml. AZD8186 plasma concentration was quantified using a validated ultraperformance liquid chromatography and tandem mass spectrometry method with a 5-2000 ng/ml dynamic range. Assays were carried out at the Sidney Kimmel Comprehensive Cancer Center Analytical Pharmacology Core Laboratory at Johns Hopkins University.
Statistical analysis for pharmacokinetic (PK) studies was carried out using Graph Pad Prism software version 9.4.1 (GraphPad Software, Inc., Boston, MA). PK parameters were evaluated statistically by Kruskal–Wallis test. Significance was determined at a level of P < 0.05. Between-group comparisons were conducted using the Wilcoxon signed rank test.

Data set [3] concerns PTEN-null and PI3Kβ-driven preclinical models of breast and prostate cancer. Details: method as in PMID 32215185, PMID 25398829. Particulars: in vitro; cited from earlier work.
Another data set has as its system xenograft mouse models. Details: method as in PMID 32215185, PMID 25398829. The settings on record: cited from earlier work.
A further data set relates to advanced solid tumors. Set-up: method as in PMID 35247924. Particulars: 60 mg b.i.d. and 120 mg b.i.d.; cited from earlier work.
The next data set can be described thus: clinical. The settings on record: human, in vivo. The protocol: as §1
Plasma concentrations of docetaxel were quantified using a validated liquid chromatography and tandem mass spectrometry.[36] The lower limit of quantitation for docetaxel was 0.5 ng/ml. AZD8186 plasma concentration was quantified using a validated ultraperformance liquid chromatography and tandem mass spectrometry method with a 5-2000 ng/ml dynamic range. […]
Statistical analysis for pharmacokinetic (PK) studies was carried out using Graph Pad Prism software version 9.4.1 (GraphPad Software, Inc., Boston, MA). PK parameters were evaluated statistically by Kruskal–Wallis test. Significance was determined at a level of P < 0.05. […]

Setting [4] is: TAC-1B AZD8186 reduced: docetaxel 45 mg/m^2, AZD8186 30 mg, n=1.
The mark [5] stands for this setting: TAC1+GF: docetaxel 75 mg/m^2, AZD8186 60 mg, n=3.
[6] abbreviates: TAC-1: docetaxel 75 mg/m^2, AZD8186 60 mg, n=1.
The mark [7] stands for this setting: TAC-1B: docetaxel 60 mg/m^2, AZD8186 60 mg, n=1.
Setting [8] is: TAC-2: docetaxel 75 mg/m^2, AZD8186 120 mg, n=7.

Like-named read-outs stand apart in the source and are kept apart here.

Take `Cc1c(Cn2c(C)nc3c(C(=O)O)cc(N4CCOCC4)cc32)cccc1C(F)(F)F` [GSK2636771]: the responses entry in data set [1] was “only anecdotal responses”.

With `C[C@@H](Nc1cc(F)cc(F)c1)c1cc(C(=O)N(C)C)cc2c(=O)cc(N3CCOCC3)oc12` [AZD8186], in data set [2] (Kruskal-Wallis), the “steady-state trough concentrations across dosing cohorts” value is “not significantly different”. Moreover, the “Cmin,ss” value is 176.0 (1) ng/mL in data set [2] (TAC1+GF: docetaxel 75 mg/m^2, AZD8186 60 mg, n=1); 149.8 ± 77.2 (3) ng/mL in data set [2] (TAC-1: docetaxel 75 mg/m^2, AZD8186 60 mg, mean ± SD, n=3); 66.0 (1) ng/mL in data set [2] (TAC-1 AZD8186 reduced: docetaxel 60 mg/m^2, AZD8186 30 mg, n=1); 130.0 (1) ng/mL in data set [2] (setting [4]); 83.5 ± 55.1 (3) ng/mL in data set [2] (TAC-1B: docetaxel 60 mg/m^2, AZD8186 60 mg, mean ± SD, n=3); 76.8 ± 49.2 (6) ng/mL in data set [2] (TAC-2: docetaxel 75 mg/m^2, AZD8186 120 mg, mean ± SD, n=6). Moreover, the Cmax – broadly, the highest concentration seen after dosing – in data set [2] (TAC1+GF: docetaxel 75 mg/m^2, AZD8186 60 mg) is 166 ng/mL; in data set [2] (TAC-1: docetaxel 75 mg/m^2, AZD8186 60 mg) it was 464 ng/mL; in data set [2] (setting [4]), 253 ng/mL; in data set [2] (setting [7]), 285 ng/mL; in data set [2] (TAC-2: docetaxel 75 mg/m^2, AZD8186 120 mg), 532 ng/mL. Further, the time of peak concentration (Tmax) (commonly the time from dosing to the highest level) in data set [2] (setting [5]) is 2.76 h; in data set [2] (setting [6]), 3.87 h; in data set [2] (setting [4]) it was 8.43 h; in data set [2] (setting [7]), 4.75 h; in data set [2] (setting [8]), 4.43 h. Moreover, the AUC(0-t) in data set [2] (setting [5]) is 224 ng·h/mL; in data set [2] (setting [6]) it was 1110 ng·h/mL; in data set [2] (setting [4]), 789 ng·h/mL; in data set [2] (setting [7]), 808 ng·h/mL; in data set [2] (setting [8]), 1800 ng·h/mL. In addition, the “PI3K signaling and viability” value in data set [3] was “inhibited PI3K signaling and viability”. For the same molecule, in the data set on xenograft mouse models, the “single-agent activity in vivo” value is reported as “limited single-agent activity”. In the data set with advanced solid tumors, the “tolerability and target inhibition in plasma” value is “tolerable with dose-dependent target inhibition in plasma”.

With `CC(=O)O[C@@]12CO[C@@H]1C[C@H](O)[C@@]1(C)C(=O)[C@H](O)C3=C(C)[C@@H](OC(=O)[C@H](O)[C@@H](NC(=O)OC(C)(C)C)c4ccccc4)C[C@@](O)([C@@H](OC(=O)c4ccccc4)[C@H]21)C3(C)C` [docetaxel], the time to peak (Tmax) in the data set “clinical” turned out to be 0.92 h.
